Laboratory results: patent US20180030546A1, “Identification of a 5-Gene Expression Signature Predicting Clinical Outcome of Patients with Brain Tumors” (THE TRUSTEES OF COLUMBIA UNIVERSITY IN THE CITY OF NEW YORK, priority 2012, published 2018)

Tests used:
[1] = test system: Ras-V12-IRES-Cre-ER-shp53 HGG; assay: Survival of glioma-bearing Id-cTKO mice treated with tamoxifen or oil; format: in vivo, mouse
[2] = test system: Ras-V12-IRES-Cre-ER-shp53 HGG; assay: Histology and immunostaining of Ras-V12-IRES-Cre-ER-shp53 tumors after tamoxifen or oil; format: in vivo, mouse
Procedure: (§1) Tissue preparation and immunohistochemistry on brain tumors and immunofluorescence staining were performed as previously described (26, 50, 51). In histograms, values represent the mean values; error bars are standard deviations (SD) or standard error of the mean (SEM) as indicated in Figure legends. Statistical significance was determined by t test (two-tailed) using GraphPad Prism 4.0 software (GraphPad Inc., San Diego, Calif.). Quantification of the IL-6 intensity staining in was performed using NIH Image J software (http://rsb.info.nih.gov/ij/). The histogram of the intensity of fluorescence of each point of a representative field for each condition was generated. The fluorescence intensity of three fields from three independent tumors was scored, and standardized to the number of cells in the field.
Intracranial injection of Ras-V12-IRES-Cre-ER-shp53 lentivirus was performed in 4-week-old Id-cTKO mice in accordance with guidelines of the […] Animal Care and Use Committee. Briefly, 1.3 μl of purified lentiviral particles in PBS (1×10^9/ml) were injected 1.45 mm lateral and 1.6 mm anterior to the bregma, and 2.3 mm below the skull using a stereotaxic frame (Kopf Instruments). Orthotopic implantation of mouse glioma cells was performed as described using 50,000 cells in 2 μof phosphate buffer (26). […] Mice were monitored daily and sacrificed when neurological symptoms appeared. Tumor volume was obtained using three-dimensional measurements in the formula for an ellipsoid: [Length×Width×Height×(π/6)]. The dimensions were derived from a complete, H&E stained, histological sectioning of the mouse brain. The length was determined by counting the number of sections containing tumor cells and multiplying it by the section thickness. […] Kaplan-Meier survival curve was generated using the DNA Statview software package (AbacusConcepts, Berkeley, Calif.).

[3] = test system: GICs from HrasV12-Cre-ER-shp53 glioma; assay: Glioma sphere formation and limiting dilution assay; format: cell-based, mouse
Procedure: For human and mouse glioma sphere formation, cells were infected with lentiviral particles. Three days later single cells were plated at density of ≦3 cells/well in triplicate in low attachment 96 well plates. The number and the size of spheres were scored after 10-14 days. Limiting dilution assay was performed as described previously (24). Spheres were dissociated into single cells and plated in 96-well plates in 0.2 ml of medium containing growth factors. Cultures were left undisturbed for 10 days, and then the percentage of wells not containing spheres for each cell dilution was calculated and plotted against the number of cells per well. Linear regression lines were plotted, and the number of cells required to generate at least one sphere in every well (=the stem cell frequency) was calculated. The experiment was repeated twice.

[4] = test system: SSEA1 and ITGα6 positive GICs; assay: Proximity of GICs to CD31 positive endothelial cells in the perivascular niche; format: in vivo, mouse; conditions: Id-cTKO tumors versus controls
Procedure: as §1

Structure (SMILES): CC/C(=C(\c1ccccc1)c1ccc(OCCN(C)C)cc1)c1ccccc1 [tamoxifen]
- mice alive after a median of twenty weeks ([1]; Id-cTKO mice, HrasV12-Cre-ER-shp53 lentivirus, tamoxifen by feeding needle, 4-day cycles from day 12, seven of eleven mice): 64%
- tumor growth ([1]; wild type animals infected with HrasV12-Cre-ER-shp53 lentivirus (without ID ablation), data not shown): did not affect tumor growth
- tumors with dramatic reduction of tumor volume compared with carrier-treated tumors ([2]; Id-cTKO mice sacrificed six weeks after tumor initiation): 80%
- reduction in the proliferation rate measured by Ki67 immunoreactivity ([2]; Id-cTKO mice, six weeks after tumor initiation, versus control tumors): four-fold
- ID1 and ID2 expression in advanced tumors by immunofluorescence ([2]; seven days after a single four-day cycle of tamoxifen treatment): loss of ID1 and ID2 expression
- tumor-sphere forming capacity ([3]; GICs derived from Id1wt/wt;Id2wt/wt;Id3-/- mice): no effect
- tumor-sphere forming capacity ([3]; GICs isolated from Id-cTKO mice): abolished
- minimal frequency of glioma cells endowed with stem cell capacity ([3]; limiting dilution, cells from freshly dissociated tumors of treated animals, control 3.84%±0.51): 0.29%±0.02
- reduction of the fraction of GICs residing within 10 μm from CD31-positive cells [4]: five-fold
